Data reported in patent US5719291A, “Cyclohexane derivatives” (Hoffmann-La Roche Inc., priority 1991, dated 1998).
Converted amounts (≈) assume the structure as drawn. Counter-ions that a name gives are not always drawn. Like-named read-outs stand apart in the source and are kept apart here.

Assays:
Type in all cases: cell-based
C. neoformans = assay: In vitro antifungal activity, IC80 (Method B); conditions: Cryptococcus neoformans, 1-2 days, 27° C., read-out: Antifungal activity IC80
Description: (§1) The in vitro antifungal activities of the representative compounds of the present invention shown in Table 1 and Table 2 were measured by determining the minimal inhibitory concentrations (MIC: Method A) or 80% growth inhibition concentration (IC80 : Method B) respectively. MIC is defined as the concentration of an antifungal at which growth of fungi is not observed and IC80 is the concentration where cell turbidity measured at OD630 is reduced by 80%.
(§2) Antifungal activities were determined by either method A or B (see below) using microtest plates according NCCLS with minor modifications (Galgiani et at., Antimicrob. Agents Chemother. 33, 731 (1989)).
(§3) (Method B) The medium for yeast was buffered to pH 7.0 with 0.25% K2 HPO4 in Yeast Nitrogen Base (Difco Lab.). For the filamentous fungi, 0.2% of low melting point agar was supplemented to the above medium. Inoculum size was 1×10^4 cells/ml, and incubation was carried out for 1-2 days at 27° C. Fluconazole (Pfizer) was used as reference.

A. fumigatus = assay: In vitro antifungal activity, IC80 (Method B); conditions: Aspergillus fumigatus, 1×10^4 cells/ml, 1-2 days, 27° C., 0.2% agar, read-out: Antifungal activity IC80
Description: as §1, §2, §3

Candida albicans [1] = assay: In vitro antifungal activity, IC80 (Method B); conditions: 1-2 days, 27° C., read-out: Antifungal activity IC80
Description: as §1, §2, §3

Cryptococcus neoformans = assay: In vitro antifungal activity, MIC (Method A); conditions: 3 days, 27° C.; for MIC: Cryptococcus neoformans, 72 h; for Antifungal activity MIC: 1×10^5 cells/ml, pH 7.0
Description: (§4) The in vitro antifungal activities of representative compounds of the present invention were measured by determining the minimal inhibitory concentration (MIC), which is the concentration of an antifungal at which no fungal growth can be observed.
(§5) The MICs were determined by the microbroth dilution procedure according to NCCLS with the following minor modifications (Galgiani et al., Antimicrob. Agents Chemother., 33, 731 (1989). The medium was solidified with 0.2% low melting point agarose and buffered to pH 7.0 with 0.25%: K2 HPO4 in Yeast Nitrogen Base (Difco Lab.). Inoculum size was 1×10^5 cells/ml, and incubation was carried out for 3 days at 27° C. The MICs ([…]) are shown in Table 1. The reference compound is compound (IA) in U.S. Pat. No. 4,952,604. The compounds used are identified by reference to the Examples in which they were prepared.
as §1, §2
(§6) (Method A) The medium was solidified with 0.2% low melting point agarose and buffered to pH 7.0 with 0.25% K2 HPO4 in Yeast Nitrogen Base (Difco Lab.). Inoculum size was 1×10^5 cells/ml, and incubation was carried out for 3 days at 27° C. The reference compound is compound (IA) in U.S. Pat. No. 4,952,604.

Candida albicans [2] = assay: In vitro antifungal activity, MIC (Method A); conditions: 3 days, 27° C.; for MIC: Candida albicans, 72 h; for Antifungal activity MIC: 1×10^5 cells/ml, pH 7.0
Description: as §4, §5, §1, §2, §6

Aspergillus fumigatus = assay: In vitro antifungal activity, MIC (Method A); conditions: 3 days, 27° C.; for MIC: Aspergillus fumigatus, 72 h; for Antifungal activity MIC: 1×10^5 cells/ml, pH 7.0
Description: as §4, §5, §1, §2, §6

[3] = pH 7, C. neoformans CY1057, 1×10^4 cells/ml
[4] = pH 7, C. neoformans CY1059, 1×10^4 cells/ml
[5] = pH 7, Candida albicans CY1002, 1×10^4 cells/ml
[6] = pH 7, Candida albicans CY1005, 1×10^4 cells/ml
[7] = pH 7, Candida albicans CY3003, 1×10^4 cells/ml
[8] = pH 7, Cryptococcus neoformans CY1057, 1×10^5 cells/ml
[9] = pH 7, Cryptococcus neoformans CY1059, 1×10^5 cells/ml
[10] = pH 7, Cryptococcus neoformans CY1061, 1×10^5 cells/ml
[11] = pH 7, Candida albicans CY1002, 1×10^5 cells/ml
[12] = pH 7, Candida albicans CY1005, 1×10^5 cells/ml
[13] = pH 7, Candida albicans CY3003, 1×10^5 cells/ml
[14] = pH 7, Aspergillus fumigatus CF1003, 1×10^5 cells/ml
[15] = pH 7, Aspergillus fumigatus CF1004, 1×10^5 cells/ml
[16] = pH 7, Aspergillus fumigatus CF1023, 1×10^5 cells/ml

Molecule	IC80 (C. neoformans; [3])	IC80 (C. neoformans; [4])	IC80 (A. fumigatus; A. fumigatus CF1003)	IC80 (A. fumigatus; A. fumigatus CF1004)	IC80 (Candida albicans [1]; [5])	IC80 (Candida albicans [1]; [6])	IC80 (Candida albicans [1]; [7])	other results
CCCCCCCCO[C@@H]1CCC(C)(C)[C@H](OC)[C@H]1NC(=O)CN [Example 54, (1R,2S,3S)-2-[(aminoacetyl)amino-4,4-dimethyl-3-methoxy-1-octyloxycyclohexanetrifluoroacetic acid salt]	46 µg/mL	47 µg/mL	150 µg/mL	140 µg/mL	18 µg/mL	12 µg/mL	18 µg/mL	–
COc1ccc(CC[C@@H]2CCC(C)(C)[C@H](OC)[C@H]2NC(=O)CN)cc1 [Example 55, (1R,2S,3S)-2-[(aminoacetyl)amino]-4-47dimethyl-3-methoxy-1-[2-(4-methoxyphenyl)ethyl]cyclohexane trifluoroacetic acid salt]	170 µg/mL	150 µg/mL	> 200 µg/mL	> 200 µg/mL	49 µg/mL	69 µg/mL	50 µg/mL	–
CCCCCCCCC[C@@H]1OC[C@H](C)C=C1Cn1ccnc1 [Example 59, 1-[[(2S,5R)-5,6-dihydro-5-methyl-2-nonyl-2H-pyran-3-yl]methyl]-1H-imidazole]	–	–	–	–	–	–	–	MIC (Cryptococcus neoformans; [8]): 3.13 µg/mL (≈ 10.3 µM); MIC (Cryptococcus neoformans; [9]): 6.25 µg/mL (≈ 20.5 µM); MIC (Cryptococcus neoformans; [10]): 3.13 µg/mL (≈ 10.3 µM); MIC (Candida albicans [2]; [11]): 50 µg/mL (≈ 164 µM); MIC (Candida albicans [2]; [12]): 25 µg/mL (≈ 82.1 µM); MIC (Candida albicans [2]; [13]): 25 µg/mL (≈ 82.1 µM); MIC (Aspergillus fumigatus; [14]): 3.13 µg/mL (≈ 10.3 µM); MIC (Aspergillus fumigatus; [15]): 12.5 µg/mL (≈ 41.1 µM); MIC (Aspergillus fumigatus; [16]): 12.5 µg/mL (≈ 41.1 µM)
CCCCCCCCO[C@@H]1CCC(C)(C)[C@H](OC)[C@@H]1Cn1ccnc1 [Example 68, 1-[[(1R,2R,6R)-2-methoxy-3,3-dimethyl-6-octyloxy-cyclohexyl]methyl]-1H-imidazole]	–	–	–	–	–	–	–	MIC (Cryptococcus neoformans; [8]): 0.39 µg/mL (≈ 1.11 µM); MIC (Cryptococcus neoformans; [9]): 0.78 µg/mL (≈ 2.23 µM); MIC (Cryptococcus neoformans; [10]): 3.13 µg/mL (≈ 8.93 µM); MIC (Candida albicans [2]; [11]): 25 µg/mL (≈ 71.3 µM); MIC (Candida albicans [2]; [12]): 12.5 µg/mL (≈ 35.7 µM); MIC (Candida albicans [2]; [13]): 12.5 µg/mL (≈ 35.7 µM); MIC (Aspergillus fumigatus; [14]): 6.25 µg/mL (≈ 17.8 µM); MIC (Aspergillus fumigatus; [15]): 12.2 µg/mL (≈ 34.9 µM); MIC (Aspergillus fumigatus; [16]): 6.25 µg/mL (≈ 17.8 µM)
CO[C@@H]1[C@@H](Cn2cncn2)[C@H](CCc2ccc(N(C)C)cc2)CCC1(C)C [Example 71]	1.2 µg/mL (≈ 3.24 µM)	1.9 µg/mL (≈ 5.13 µM)	32 µg/mL (≈ 86.4 µM)	37 µg/mL (≈ 99.9 µM)	0.03 µg/mL (≈ 0.081 µM)	0.094 µg/mL (≈ 0.254 µM)	0.036 µg/mL (≈ 0.0972 µM)	–
CO[C@@H]1[C@@H](Cn2cncn2)[C@H](CCc2ccc(Cl)cc2)CCC1(C)C [Example 72, 1-[[(1R,2R,6R)-6-[2-(4-chlorophenyl)ethyl]-2-methoxy-3,3-dimethylcyclohexyl]methyl]-1H-1,2,4-triazole]	1.3 µg/mL (≈ 3.59 µM)	4.8 µg/mL (≈ 13.3 µM)	14 µg/mL (≈ 38.7 µM)	12 µg/mL (≈ 33.2 µM)	0.095 µg/mL (≈ 0.262 µM)	0.094 µg/mL (≈ 0.26 µM)	0.06 µg/mL (≈ 0.166 µM)	–
CO[C@@H]1[C@@H](Cn2cncn2)[C@H](CSc2ccc(Cl)cc2)CCC1(C)C [Example 73, 1-[[(1R,2R,6R)-6-[(4-chlorophenylthio)methyl]-2-methoxy-3,3-dimethylcyclohexyl]methyl]-1H-1,2,4-triazole]	5.8 µg/mL (≈ 15.3 µM)	6.1 µg/mL (≈ 16.1 µM)	23 µg/mL (≈ 60.5 µM)	23 µg/mL (≈ 60.5 µM)	0.008 µg/mL (≈ 0.0211 µM)	0.011 µg/mL (≈ 0.029 µM)	0.02 µg/mL (≈ 0.0526 µM)	–
CO[C@@H]1[C@@H](Cn2cncn2)[C@H](CCc2ccc(C)cc2)CCC1(C)C [Example 74]	0.46 µg/mL (≈ 1.35 µM)	3.8 µg/mL (≈ 11.1 µM)	20 µg/mL (≈ 58.6 µM)	24 µg/mL (≈ 70.3 µM)	0.076 µg/mL (≈ 0.223 µM)	0.093 µg/mL (≈ 0.272 µM)	0.038 µg/mL (≈ 0.111 µM)	–
CO[C@@H]1[C@@H](Cn2cncn2)[C@H](CCc2ccc3ccccc3c2)CCC1(C)C [Example 75, 1-[[(1R,2R,6R)-2-methoxy-3,3-dimethyl-6-(2-b-naphthylethyl)cyclohexyl]methyl]-1H,1,1,4-triazole]	0.19 µg/mL (≈ 0.503 µM)	1.3 µg/mL (≈ 3.44 µM)	> 200 µg/mL	> 200 µg/mL	0.18 µg/mL (≈ 0.477 µM)	0.2 µg/mL (≈ 0.53 µM)	0.34 µg/mL (≈ 0.901 µM)	–
CO[C@@H]1[C@@H](Cn2cncn2)[C@H](CCc2ccc3ccccc3n2)CCC1(C)C [Example 76, 1-[[(1R,2R,6S)-2-methoxy-3,3-dimethyl-6-(2-quinolin-2-ylethyl)cyclohexyl]methyl]-1H,1,2,4-triazole]	10 µg/mL (≈ 26.4 µM)	30 µg/mL (≈ 79.3 µM)	30 µg/mL (≈ 79.3 µM)	36 µg/mL (≈ 95.1 µM)	0.38 µg/mL (≈ 1 µM)	0.77 µg/mL (≈ 2.03 µM)	0.36 µg/mL (≈ 0.951 µM)	–
CO[C@@H]1[C@@H](Cn2cncn2)[C@H](CCc2ccc(C(F)(F)F)cc2)CCC1(C)C [Example 77]	0.39 µg/mL (≈ 0.986 µM)	3.2 µg/mL (≈ 8.09 µM)	> 200 µg/mL	> 200 µg/mL	0.16 µg/mL (≈ 0.405 µM)	0.18 µg/mL (≈ 0.455 µM)	0.093 µg/mL (≈ 0.235 µM)	–
CO[C@@H]1[C@@H](Cn2cncn2)[C@H](CCc2ccc(OC(F)(F)F)cc2)CCC1(C)C [Example 78, 1-[[(1R,2R,6R)-6-(p-trifluoromethoxyphenethyl)-2-methoxy-3,3-dimethylcyclohexyl]methyl]-1H-1,2,4-triazole]	8.4 µg/mL (≈ 20.4 µM)	21 µg/mL (≈ 51 µM)	> 200 µg/mL	> 200 µg/mL	0.03 µg/mL (≈ 0.0729 µM)	0.093 µg/mL (≈ 0.226 µM)	0.071 µg/mL (≈ 0.173 µM)	–
COc1ccc(CC[C@@H]2CCC(C)(C)[C@H](OC)[C@H]2Cn2cncn2)cc1 [Example 79, 1-[[(1R,2R,6R)-2-methoxy-6-(p-methoxyphenethyl)-3,3-dimethylcyclohexyl]methyl]-1H,1,2,4-triazole]	0.86 µg/mL (≈ 2.41 µM)	4.7 µg/mL (≈ 13.1 µM)	> 200 µg/mL	> 200 µg/mL	0.023 µg/mL (≈ 0.0643 µM)	0.024 µg/mL (≈ 0.0671 µM)	0.02 µg/mL (≈ 0.0559 µM)	–
(2S,3R,4S,5R)-5-butoxy-4-methoxy-2-[(E)-1-nonenyl]tetra-hydro-2H-pyran-3-ylglycinate trifluoroacetic acid salt [Example 35]	–	–	–	–	–	–	–	Antifungal activity MIC (Cryptococcus neoformans; Cryptococcus neoformans CY1057): 3.13 µg/mL; Antifungal activity MIC (Cryptococcus neoformans; Cryptococcus neoformans CY1059): 6.25 µg/mL; Antifungal activity MIC (Cryptococcus neoformans; Cryptococcus neoformans CY1061): 12.5 µg/mL; Antifungal activity MIC (Candida albicans [2]; Candida albicans CY1002): 25 µg/mL; Antifungal activity MIC (Candida albicans [2]; Candida albicans CY1005): 25 µg/mL; Antifungal activity MIC (Candida albicans [2]; Candida albicans CY3003): 50 µg/mL; Antifungal activity MIC (Aspergillus fumigatus; Aspergillus fumigatus CF1003): 25 µg/mL; Antifungal activity MIC (Aspergillus fumigatus; Aspergillus fumigatus CF1004): 25 µg/mL; Antifungal activity MIC (Aspergillus fumigatus; Aspergillus fumigatus CF1023): 25 µg/mL
(2S,3R,4S,5S)-4-methoxy-5-methyl-2-[(E)-1-nonenyl]tetra-hydro-2H-pyran-3-ylglycinate trifluoroacetic acid salt [Example 24]	–	–	–	–	–	–	–	Antifungal activity MIC (Cryptococcus neoformans; Cryptococcus neoformans CY1057): 25 µg/mL; Antifungal activity MIC (Cryptococcus neoformans; Cryptococcus neoformans CY1059): 25 µg/mL; Antifungal activity MIC (Cryptococcus neoformans; Cryptococcus neoformans CY1061): 50 µg/mL; Antifungal activity MIC (Candida albicans [2]; Candida albicans CY1002): 50 µg/mL; Antifungal activity MIC (Candida albicans [2]; Candida albicans CY1005): 100 µg/mL; Antifungal activity MIC (Candida albicans [2]; Candida albicans CY3003): 50 µg/mL; Antifungal activity MIC (Aspergillus fumigatus; Aspergillus fumigatus CF1003): 50 µg/mL; Antifungal activity MIC (Aspergillus fumigatus; Aspergillus fumigatus CF1004): 25 µg/mL; Antifungal activity MIC (Aspergillus fumigatus; Aspergillus fumigatus CF1023): 50 µg/mL
